From ChEMBL document CHEMBL1132846, “Synthesis and biological evaluation of highly potent analogues of epothilones B and D” (Bioorg Med Chem Lett, 2000)

Columns and labels:
KB 3-1 = experiment: Concentration required to inhibit the growth of paclitaxel-sensitive human epidermoid carcinoma cells KB-31 by 50 percent (72 hr exposure); type: functional, cell-based; conditions: KB 3-1, 72 h
KB = experiment: Concentration required to inhibit the growth of paclitaxel-resistant human epidermoid carcinoma cells KB-8511 by 50 percent (72 hr exposure); type: functional, cell-based
Sus scrofa [1] = species: Sus scrofa; experiment: Induction of polymerization of porcine brain-derived microtubule protein by 2 uM epothilone B; type: functional
Sus scrofa [2] = species: Sus scrofa; experiment: Concentrations required to induce 50 percent polymerization of porcine brain-derived micro-tubule protein; type: functional

Row | Structure (SMILES) | IC50 (KB 3-1) | IC50 (KB) | Tubulin polymerization (Sus scrofa [1]) | EC50 (Sus scrofa [2])
1 | C[C@H]1CCC[C@@]2(C)O[C@H]2C[C@@H](c2ccc3cccnc3c2)OC(=O)C[C@H](O)C(C)(C)C(=O)[C@H](C)[C@H]1O | 0.11 nM | 0.1 nM | 78% | 
2 | Cc1nc2cc([C@@H]3C[C@@H]4O[C@]4(C)CCC[C@H](C)[C@H](O)[C@@H](C)C(=O)C(C)(C)[C@@H](O)CC(=O)O3)ccc2n1C | 0.14 nM | 0.38 nM | 99% | 
3 | C/C1=C/C[C@@H](c2ccc3cccnc3c2)OC(=O)C[C@H](O)C(C)(C)C(=O)[C@H](C)[C@@H](O)[C@@H](C)CCC1 | 0.59 nM | 0.38 nM | 90% | 
4 | C/C1=C/C[C@@H](c2ccc3sc(C)nc3c2)OC(=O)C[C@H](O)C(C)(C)C(=O)[C@H](C)[C@@H](O)[C@@H](C)CCC1 | 0.45 nM | 0.23 nM | 76% | 930 nM
5 | Cc1nc2cc([C@@H]3C[C@@H]4O[C@]4(C)CCC[C@H](C)[C@H](O)[C@@H](C)C(=O)C(C)(C)[C@@H](O)CC(=O)O3)ccc2s1 | 0.13 nM | 0.09 nM | 83% | 
6 | C/C1=C/C[C@@H](c2ccc3c(c2)ncn3C)OC(=O)C[C@H](O)C(C)(C)C(=O)[C@H](C)[C@@H](O)[C@@H](C)CCC1 | 0.46 nM | 0.91 nM | 86% | 
7 | C/C(=C\c1ccccn1)[C@@H]1C[C@@H]2O[C@]2(C)CCC[C@H](C)[C@H](O)[C@@H](C)C(=O)C(C)(C)[C@@H](O)CC(=O)O1 | 0.3 nM | 0.3 nM |  | 
8 | C/C1=C/C[C@@H](c2ccc3c(c2)nc(C)n3C)OC(=O)C[C@H](O)C(C)(C)C(=O)[C@H](C)[C@@H](O)[C@@H](C)CCC1 | 0.21 nM | 0.73 nM | 94% | 
9 | C[C@H]1CCC[C@@]2(C)O[C@H]2C[C@@H](c2ccc3c(c2)ncn3C)OC(=O)C[C@H](O)C(C)(C)C(=O)[C@H](C)[C@H]1O | 0.13 nM | 0.46 nM | 97% | 
10 | C/C(=C\c1csc(C)n1)[C@@H]1C[C@@H]2O[C@@H]2CCC[C@H](C)[C@H](O)[C@@H](C)C(=O)C(C)(C)[C@@H](O)CC(=O)O1 [EPOTHILONE A] | 2.15 nM | 1.91 nM | 69% | 1120 nM
11 | C/C1=C/C[C@@H](/C(C)=C/c2csc(C)n2)OC(=O)C[C@H](O)C(C)(C)C(=O)[C@H](C)[C@@H](O)[C@@H](C)CCC1 [EPOTHILONE D] | 2.7 nM | 1.44 nM | 83% | 880 nM
12 | CC(=O)O[C@H]1C(=O)[C@@]2(C)[C@H]([C@H](OC(=O)c3ccccc3)[C@]3(O)C[C@H](OC(=O)[C@H](O)[C@@H](NC(=O)c4ccccc4)c4ccccc4)C(C)=C1C3(C)C)[C@]1(OC(C)=O)CO[C@@H]1C[C@@H]2O [PACLITAXEL] | 2.92 nM | 626 nM | 49% | 
13 | C/C(=C\c1csc(C)n1)[C@@H]1C[C@@H]2O[C@]2(C)CCC[C@H](C)[C@H](O)[C@@H](C)C(=O)C(C)(C)[C@@H](O)CC(=O)O1 [PATUPILONE] | 0.19 nM | 0.18 nM | 90% | 670 nM
